Assays:
[1] = tested on: double negative (DN; CD4− CD8−) thymocytes; test: DL4-Fc ligand binding to thymocytes
Method: Progenitor T cell development in the thymus is characterized by four sequential stages commonly referred to as DN1, DN2, DN3 and DP (DN=double negative and DP=double positive for CD4 and CD8 expression). An ideal defined progenitor T cell differentiation assay should aim to support the expansion of DN3 T cells that are exclusively committed to the T lymphoid lineage. […] Conventional in vitro T cell differentiation is carried out on an OP9 stromal feeder layer in serum-containing medium. The obvious first step in developing a defined assay for T cell differentiation is to establish conditions that eliminate the requirements for both serum and feeders. To replace the OP9 feeder layer, DL4-Fc protein was generated and the purity and functionality of the ligand to bind DN T cells and not DP T cells was verified, as these cell types differentially express the Notch-1 receptor (FIGS. 1a-c). […] Cultures were re-fed after four days and analyzed for progenitor T cell surface markers after seven days (FIG. 2a). Parallel cultures were carried out on untreated surfaces (negative control) and OP9-DL4 stromal co-culture (positive control based on which SCF, Flt3L and IL-7 supplementation concentrations were determined^9). […] The level of lineage skewing to non-T cell fates was also quantified in the absence of Notch ligand in order to assess the default cell differentiation supported by all medium types.

[2] = tested on: sorted sca1+ckit+ fetal-liver HSPCs; test: Defined T cell differentiation assay on adsorbed ligand, flow cytometry; format: cell-based, mouse
Method: FIG. 2a: Schematic for 2D coated DL4 assay, in which sorted E13.5 sca1+ckit+ fetal-liver HSPCs are seeded on coated DL4 ligand in standard 96-well flat bottom plates at 1000 cells/well density in 200 μl test media containing cytokines 25 ng/mL SCF, 5 ng/mL Flt3L and 1 ng/mL IL7; cells are re-fed on day 4 with fresh media containing cytokines; on day 7, cells are assayed for surface marker expression using flow cytometry.
Commercially available DL4-Fc was purchased and used for experiments from Sino Biologicals (Cedarlane Labs, Burlington, Ontario, Canada) or manufactured in-house as described below. DL4-Fc was diluted in chilled phosphate-buffered saline (PBS) at 10 μg/mL or […] and 50 μL/well was coated in standard tissue-culture 96-well plates overnight at 4° C. Wells were washed once with PBS prior to seeding cells to remove any unbound ligand from the wells. For certain experiments, wells were also coated overnight with 50 μL/well PBS containing DL4-Fc and VCAM-1-Fc (R&D) or fibronectin (Sigma) at concentrations described herein.
Sorted sca1+ckit+ HSPCs were cultured at 1000 cells/well (corresponding to 3.1×10^3 cells/cm^2) in DL4-coated 96-well plates in serum-free Iscove modified Dulbecco medium (Gibco, Rockville, MD) with 20% bovine serum albumin, insulin, and transferrin serum substitute (BIT; Stemcell Technologies), 1% GlutaMAX™ (Gibco) and 1 μg/mL low-density lipoproteins (Calbiochem, La Jolla, CA) [IMDM+BIT]. For positive control cultures, OP9 serum medium was used, composed of αMEM medium (Gibco) and 16% FBS (Hyclone™, GE Health). Serum-free αMEM+BIT medium was prepared exactly as IMDM+BIT medium except using αMEM (Gibco) as the base medium. OP9 serum medium, αMEM+BIT or IMDM+BIT serum free medium was added at 200 μL/well supplemented with 25 ng/mL Stem Cell Factor (SCF; R&D Systems, Minneapolis, MN), 5 ng/mL FMS-like Tyrosine Kinase 3 Ligand (Flt3L; R&D Systems) and 1 ng/mL Interleukin-7 (IL-7; R&D Systems) with a 50% medium exchange step at day 4 containing 2-fold concentrated cytokines as described previously^9. Design of Experiment (DOE) in silico modeling was performed using Design-Expert® (v10) using response surface method to investigate the combinatorial desirability of different concentrations of SCF, Flt3L and IL-7 for maximizing DN3 T-cell yield and minimizing the volume of IMDM+BIT medium. After DOE optimization, IMDM+BIT serum-free medium was added at 50 μL/well supplemented with 50 ng/mL SCF (R&D Systems), 10 ng/mL Flt3L (R&D Systems) and 10 ng/mL IL-7 (R&D Systems) unless described otherwise in the text with no medium exchange for the length of the assay. For the candidate factor screening in serum-free IMDM+BIT medium, the following proteins or small molecules were used at the concentrations listed: JAK inhibitor I (50 nM; EMD Millipore), IL-11 (10, 50, and 100 ng/mL; R&D Systems), IL-6 (10, 50, and 100 ng/mL; R&D Systems), IL-6R (100 ng/mL; R&D Systems), Ccl25 (1.5 μg/mL; R&D Systems), IL-7 (50, 100, and 200 ng/mL; R&D Systems), SDF1α (Cxcl12; 200 ng/mL; R&D Systems), and Leukemia Inhibitory Factor (LIF; 0.1, 1, and 10 ng/mL; EMD Millipore).
Surface marker staining was performed with conjugated rat anti-mouse antibodies (BD Biosciences, San Jose, CA, Table 1). All samples were analyzed on a FACSCanto™ or FACS LSRFortessa™ flow cytometer (BD Biosciences). At day 7 of culture, cells were lifted off the plate with multiple HF rinses, stained at 1:400 dilution with antibodies against CD45, CD25, CD44, CD90, CD11 b and CD19 for 20 minutes on ice. Human progenitor T-cells were stained at 1:100 dilution with antibodies against CD34, CD7, CD5 and CD45RA. Integrin expression was analyzed using antibodies against α4, β1, and β7 integrin subunits on Sca-1+cKit+ mouse HSPCs and CD34+ human umbilical blood cells. […]

[3] = tested on: human umbilical cord blood-derived CD34+ HSPCs; test: Human CD34+ HSPC progenitor T cell differentiation on coated plates; format: cell-based; conditions: serum-free IMDM+BIT
Method: For human HSPC culture, umbilical cord blood samples were collected from consenting donors according to ethically approved procedures at Mount Sinai Hospital. CD34+ cells were isolated from the red blood cell (RBC)-lysed cord blood fraction using the EasySep™ Human CD34 Positive Selection Kit (Stemcell Technologies) according to the manufacturer's instructions. Flow cytometry was performed after every enrichment to ensure CD34 frequencies were greater than 95%. CD34+ HSPCs were cultured for 14 days on DL4 and VCAM-1 coated 96-well plates at higher seeding densities of 12,500 HSPCs/cm^2 (corresponding to 4000 cells/well). One complete medium exchange was performed at day 7 of culture and cells were returned to the same DL4 and VCAM-1 coated plates. For certain experiments, DL4-Fc was coated alone or with RetroNectin® (Takara Shuzo) or fibronectin (Sigma Aldrich) as described in the text. CD34+ cells were cultured in serum-free Iscove modified Dulbecco medium (Gibco) with 20% bovine serum albumin, insulin, and transferrin serum substitute (BIT; Stemcell Technologies), 1% GlutaMAX™ (Gibco) and 1 μg/mL low-density lipoproteins (Calbiochem). The medium was added at 50 μL/well supplemented with 100 ng/mL SCF (R&D Systems, Minneapolis, MN), 100 ng/mL Flt3L (R&D Systems), 100 ng/mL Tpo (R&D Systems) and 100 ng/mL IL-7 (R&D Systems).
Surface marker staining was performed with conjugated rat anti-mouse antibodies (BD Biosciences, San Jose, CA, Table 1). All samples were analyzed on a FACSCanto™ or FACS LSRFortessa™ flow cytometer (BD Biosciences). At day 7 of culture, cells were lifted off the plate with multiple HF rinses, stained at 1:400 dilution with antibodies against CD45, CD25, CD44, CD90, CD11 b and CD19 for 20 minutes on ice. […] Integrin expression was analyzed using antibodies against α4, β1, and β7 integrin subunits on Sca-1+cKit+ mouse HSPCs and CD34+ human umbilical blood cells. […] Flow data was analyzed and batch processed using FlowJo® software and further analyzed in Python (version 2.7.10).

Q: Which results are given for “DL4: Notch ligand Delta-like-4 extracellular domain fused to the Fc region of human IgG1”?
A: binding to DN vs. DP thymocytes [1]: binding double negative (DN; CD4− CD8−) and not double positive (DP, CD4+CD8+) thymocytes; DN3 frequency at 20 μg/mL immobilized ligand ([2]; 20 μg/mL immobilized, no soluble ligand, day 7): generated DN3 cells at equivalent frequencies as in the 10 μg/mL coated DL4 control; minimum concentration of adsorbed DL4 that supported DN3 cell generation ([2]; IMDM+BIT serum-free medium, 7 days of culture): 7.5 µg/mL; generation of CD7+CD34+ cells ([3]; DL4 alone): can generate CD7+CD34+ cells; generation of later stage progenitor T cells from CD34+ HSPCs ([3]; 9 or 14 days, matrix proteins in conjunction with DL4): insufficient to drive these progenitor cells to later stages of T cell development

Source: patent publication US12076342B2, “Method for generating progenitor t cells from stem and/or progenitor cells and use of same” (THE GOVERNING COUNCIL OF THE UNIVERSITY OF TORONTO, priority 2016, dated 2024)
